# Target: T1, MA-ACR (parent A, A-AAAAAAAA) (Marinobacter nauticus, UniProt A1U3L3)
# T1 construct: gene Maqu_2507; full-length two-domain enzyme (N-terminal AHR, C-terminal ATR), pET28, E. coli host, purified by the same method as His-tagged E. coli ACP; reported elsewhere as tetrameric
# T1 sequence (A1U3L3 1-661): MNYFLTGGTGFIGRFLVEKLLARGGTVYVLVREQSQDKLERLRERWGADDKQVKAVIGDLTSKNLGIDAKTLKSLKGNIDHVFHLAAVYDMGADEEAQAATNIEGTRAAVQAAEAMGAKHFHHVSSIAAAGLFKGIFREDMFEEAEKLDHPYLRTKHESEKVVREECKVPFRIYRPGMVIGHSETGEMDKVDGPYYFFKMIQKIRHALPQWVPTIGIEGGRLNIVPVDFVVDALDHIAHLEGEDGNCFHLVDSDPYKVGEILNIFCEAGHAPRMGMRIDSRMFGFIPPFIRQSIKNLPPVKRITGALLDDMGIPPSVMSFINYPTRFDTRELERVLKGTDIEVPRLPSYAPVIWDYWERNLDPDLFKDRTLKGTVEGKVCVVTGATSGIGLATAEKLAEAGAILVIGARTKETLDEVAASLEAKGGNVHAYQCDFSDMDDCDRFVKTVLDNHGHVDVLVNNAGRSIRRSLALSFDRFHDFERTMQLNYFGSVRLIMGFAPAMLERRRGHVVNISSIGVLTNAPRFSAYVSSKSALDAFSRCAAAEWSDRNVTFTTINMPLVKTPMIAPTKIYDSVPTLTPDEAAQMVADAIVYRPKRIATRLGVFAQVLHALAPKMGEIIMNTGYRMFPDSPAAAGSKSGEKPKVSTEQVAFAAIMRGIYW
# Experiment: DTNB release assay, A412, 96-well plate
# Type: biochemical
# Conditions: 200 µM NADPH, 1 µM enzyme, 250-252 µM DTNB, 20 mM Tris, 50 mM NaCl, pH 7
structure (smiles),measurement,value
CCCCCCCCCCCCCCCC(=O)SCCNC(=O)CCNC(=O)[C@H](O)C(C)(C)COP(=O)(O)OP(=O)(O)OC[C@H]1O[C@@H](n2cnc3c(N)ncnc32)[C@H](O)[C@@H]1OP(=O)(O)O [palmitoyl-CoA],"DTNB release assay, A412, 96-well plate",ATR-83 has a lower activity than the parents on palmitoyl-CoA

# Reference: article PMC8492656, “Machine learning-guided acyl-ACP reductase engineering for improved in vivo fatty alcohol production” (Nature Communications, 2021)
